Columns and labels:
C2C12 cells [1] = assay: Western blot of phosphorylated Smad 2 and AKT in TGF-β1-treated C2C12 cells; type: cell-based, murine; conditions: TGF-β1-treated versus untreated cells, whole-cell lysates
Experimental: C2C12 cells were plated onto 6-well plates at a 2×10^5 density and 24 h later transfected with either negative control siRNA (Negative Control No. 1 siRNA, Life Technologies) or custom siRNAs targeting S1P (Silencer Select siRNAs, Life Technologies) using Lipofectamine RNAiMAX as per manufacturer's instructions. After 48 h, cells were either harvested for gene expression analysis or differentiated with DMEM supplemented with 2% horse serum. Two days after differentiation, cells were harvested for gene expression analysis. For TGF-β1 treatment studies, three days post-differentiation, cells were treated with 50 ng/ml TGF-β1 (R&D) for 5 h then harvested for downstream endpoints.
Skeletal muscle whole protein lysates were generated by homogenizing tissues in lysis buffer (20 mM Tris, 15 mM NaCl, 1 mM EDTA, 0.2% NP-40, and 10% glycerol) supplemented with 2× Protease Complete cocktail tablet (Roche) and 1× Phosphatase Inhibitors (Roche, Mannheim, Germany) with stainless steel beads in a TissueLyzer II (Qiagen). Protein lysates were rotated for 45 min at 4° C., followed by centrifugation at 15,000×g for 15 min at 4° C. Protein was quantified by bicinchoninic acid assay (BCA, Pierce Biotechnology), equal amounts of protein were resolved on a 4-15 SDS-PAGE gradient gel (Bio-Rad), and transferred to PVDF-FL membrane (MilliporeSigma). […]

C2C12 cells [2] = assay: MSS51 expression by qPCR in C2C12 cells treated with vehicle or TGF-β1; type: cell-based, murine; conditions: scrambled and S1P-depleted C2C12 cells, 50 ng/ml for 5 h, versus vehicle
Experimental: Total RNA was isolated from C2C12 cells, skeletal muscle, heart, adipose, kidney, and liver with RNA STAT-60 (Tel-Test Inc) as per manufacturer's instructions. For tissues, RNA was isolated by disrupting tissue in RNA STAT-60 using […] (Qiagen) and a TissueLyser II (Qiagen). RNA was reverse transcribed into cDNA using the High-Capacity cDNA Reverse Transcription Kit (Applied Biosystems). Quantitative real-time PCR was performed using Power SYBR green (Applied Biosystems) and transcripts quantified on an ABI QuantiStudio 3 sequence detection system (Applied Biosystems). Data was normalized to 36B4 expression, unless otherwise noted, and results analyzed using the 2^−ΔΔCt method and reported as relative units to controls.
C2C12 cells were plated onto 6-well plates at a 2×10^5 density and 24 h later transfected with either negative control siRNA (Negative Control No. 1 siRNA, Life Technologies) or custom siRNAs targeting S1P (Silencer Select siRNAs, Life Technologies) using Lipofectamine RNAiMAX as per manufacturer's instructions. After 48 h, cells were either harvested for gene expression analysis or differentiated with DMEM supplemented with 2% horse serum. Two days after differentiation, cells were harvested for gene expression analysis. […]

Substance: TGF-β1: recombinant TGF-β1 (R&D) used to treat C2C12 cells
- Smad 2 phosphorylation induced by TGF-β1 (C2C12 cells [1]): induced
- MSS51 expression in the presence of TGF-β1 (C2C12 cells [2]): increased
